No end group written: not given here.
Target: HLA-A*0301 (Homo sapiens, UniProt P04439)
Assay: biochemical
Format: binding

Point of comparison: SLGPGPGTK, IC50 0.0078 µM. Against it:
- NVMGRWTGR — 500-fold higher, 3.88 µM
- VTIKIEGQLK — 46-fold higher, 0.361 µM
- KMFLQLAK — 5.8-fold higher, 0.045 µM
- QMAVGPGPGK — 4.2-fold higher, 0.033 µM
- KFSEFRWYRY — 610-fold higher, 4.75 µM
- NTLEQTVKR — 2600-fold higher, 20.4 µM
- SVCRSSRTR — 41-fold higher, 0.323 µM
- GTTLESITKK — 80-fold higher, 0.622 µM
- ALQAAAAAK — 7.3-fold higher, 0.057 µM
- VTLDIQSTK — 10-fold higher, 0.078 µM
- DTLEQTLKR — 4000-fold higher, 31.3 µM
- QQNQESKIMK — 440-fold higher, 3.47 µM
- TVQPGPGPGK — 5.3-fold higher, 0.041 µM
- SVYGETLER — 5.6-fold higher, 0.044 µM
- VSIRVGGQIK — 82-fold higher, 0.642 µM
- ETNPFGICK — 1200-fold higher, 9.59 µM
- ELTEVFEFAFK — 1200-fold higher, 8.97 µM
- DTIPHAACHK — 300-fold higher, 2.37 µM
- TLYQIQVMKR — 46-fold higher, 0.361 µM
- LTFYSKVRK — 2.1-fold lower, 0.0038 µM
- PVRPQVPLR — higher, > 10.9 µM
- FVVYRDSIPK — 34-fold higher, 0.265 µM
- TLEQTVKK — 610-fold higher, 4.77 µM
- KQENWYSLKK — 78-fold higher, 0.608 µM
- KVRFHNIRGR — 5-fold higher, 0.039 µM
- GTMYILLKK — 3.5-fold lower, 0.0022 µM
- SLYGKTLEEK — within 1.5-fold, 0.0079 µM
- LTISYGRKK — 75-fold higher, 0.584 µM
- LVTDLRIVYR — 500-fold higher, 3.87 µM
- KQLCDLLIK — 29-fold higher, 0.226 µM
- VTIRVGGQLK — 5.5-fold higher, 0.043 µM
- GTRQARRNK — 8.6-fold higher, 0.067 µM
- AVKDLFVVYR — 220-fold higher, 1.73 µM
- GTGISYGRK — 62-fold higher, 0.48 µM

Target: HLA-A*1101 (Homo sapiens, UniProt P04439, A114D/D185E/E176A/F33Y/L180Q/S129P/T187R)
Assay: biochemical
Format: binding

Point of comparison: VTIRVGGQLK, IC50 0.013 µM. Against it:
- NVMGRWTGR — 61-fold higher, 0.794 µM
- VTIKIEGQLK — 5.3-fold higher, 0.069 µM
- KMFLQLAK — 4.8-fold higher, 0.062 µM
- QMAVGPGPGK — within 1.5-fold, 0.016 µM
- KFSEFRWYRY — 120-fold higher, 1.59 µM
- NTLEQTVKR — 88-fold higher, 1.15 µM
- SVCRSSRTR — 7.5-fold higher, 0.097 µM
- GTTLESITKK — 8.3-fold higher, 0.108 µM
- ALQAAAAAK — 5-fold higher, 0.065 µM
- VTLDIQSTK — the same, 0.013 µM
- DTLEQTLKR — 990-fold higher, 12.9 µM
- QQNQESKIMK — 5.9-fold higher, 0.077 µM
- TVQPGPGPGK — 5.2-fold lower, 0.0025 µM
- SVYGETLER — within 1.5-fold, 0.011 µM
- VSIRVGGQIK — 7-fold higher, 0.091 µM
- ETNPFGICK — 7.7-fold higher, 0.1 µM
- ELTEVFEFAFK — 45-fold higher, 0.582 µM
- DTIPHAACHK — 54-fold higher, 0.701 µM
- TLYQIQVMKR — 13-fold higher, 0.164 µM
- LTFYSKVRK — 1.6-fold lower, 0.008 µM
- PVRPQVPLR — 1200-fold higher, 16.1 µM
- FVVYRDSIPK — 6.2-fold higher, 0.081 µM
- TLEQTVKK — 16-fold higher, 0.203 µM
- KQENWYSLKK — 14-fold higher, 0.178 µM
- KVRFHNIRGR — 660-fold higher, 8.63 µM
- GTMYILLKK — 11-fold lower, 0.0012 µM
- SLYGKTLEEK — 1.9-fold lower, 0.0068 µM
- LTISYGRKK — 5.3-fold higher, 0.069 µM
- SLGPGPGTK — 2.2-fold lower, 0.0058 µM
- LVTDLRIVYR — 50-fold higher, 0.648 µM
- KQLCDLLIK — 5-fold higher, 0.065 µM
- GTRQARRNK — 58-fold higher, 0.749 µM
- AVKDLFVVYR — 7-fold higher, 0.091 µM
- GTGISYGRK — 5.9-fold higher, 0.077 µM

Target: HLA-A*3101 (Homo sapiens, UniProt P04439, A270S/D185E/E176V/E277Q/F33T/G231S/G80R/H175R/I121M/I218V/I322F/K168Q/L300P/L318F/M331R/P217A/Q94H/R138Q/T323A/T345S/T97I/V358M)
Assay: biochemical
Format: binding

Point of comparison: PVRPQVPLR, IC50 0.332 µM. Against it:
- NVMGRWTGR — 8.3-fold lower, 0.04 µM
- VTIKIEGQLK — 15-fold higher, 5.08 µM
- KMFLQLAK — 2-fold higher, 0.677 µM
- QMAVGPGPGK — 18-fold higher, 5.96 µM
- KFSEFRWYRY — 9.8-fold lower, 0.034 µM
- NTLEQTVKR — 6.8-fold higher, 2.27 µM
- SVCRSSRTR — within 1.5-fold, 0.249 µM
- GTTLESITKK — 260-fold higher, 85.2 µM
- ALQAAAAAK — 160-fold higher, 52 µM
- VTLDIQSTK — 6.2-fold higher, 2.05 µM
- DTLEQTLKR — 110-fold higher, 38.1 µM
- QQNQESKIMK — 85-fold higher, 28.1 µM
- TVQPGPGPGK — 4-fold higher, 1.34 µM
- SVYGETLER — within 1.5-fold, 0.235 µM
- VSIRVGGQIK — 150-fold higher, 50.7 µM
- ETNPFGICK — 88-fold higher, 29.1 µM
- ELTEVFEFAFK — 76-fold higher, 25.2 µM
- DTIPHAACHK — 5.3-fold higher, 1.76 µM
- TLYQIQVMKR — within 1.5-fold, 0.397 µM
- LTFYSKVRK — 3.8-fold lower, 0.087 µM
- FVVYRDSIPK — 19-fold higher, 6.22 µM
- TLEQTVKK — higher, > 100 µM
- KQENWYSLKK — 19-fold higher, 6.33 µM
- KVRFHNIRGR — 12-fold lower, 0.027 µM
- GTMYILLKK — 11-fold lower, 0.029 µM
- SLYGKTLEEK — 3.1-fold higher, 1.04 µM
- LTISYGRKK — 42-fold higher, 13.9 µM
- SLGPGPGTK — 13-fold higher, 4.39 µM
- LVTDLRIVYR — 17-fold lower, 0.02 µM
- KQLCDLLIK — within 1.5-fold, 0.34 µM
- VTIRVGGQLK — 11-fold higher, 3.59 µM
- GTRQARRNK — 29-fold higher, 9.71 µM
- AVKDLFVVYR — 110-fold lower, 0.0031 µM
- GTGISYGRK — 180-fold higher, 58.1 µM

Target: HLA-A*3301 (Homo sapiens, UniProt P04439, A270S/D185E/E176V/E277Q/E87N/F33T/G231S/H175R/I121M/I218V/I322F/K168Q/K210R/L300P/L318F/M331R/P217A/Q86R/Q94H/R138Q/T323A/T345S/T97I/V358M/Y195H)
Assay: biochemical
Format: binding

Point of comparison: LVTDLRIVYR, IC50 0.15 µM. Against it:
- NVMGRWTGR — 8.3-fold lower, 0.018 µM
- VTIKIEGQLK — 390-fold higher, 58 µM
- KMFLQLAK — higher, > 126 µM
- QMAVGPGPGK — 580-fold higher, 86.7 µM
- KFSEFRWYRY — 5.7-fold higher, 0.856 µM
- NTLEQTVKR — 8.3-fold lower, 0.018 µM
- SVCRSSRTR — 3.6-fold higher, 0.547 µM
- GTTLESITKK — 890-fold higher, 133 µM
- ALQAAAAAK — higher, > 72.5 µM
- VTLDIQSTK — 13-fold higher, 1.95 µM
- DTLEQTLKR — 16-fold lower, 0.0092 µM
- QQNQESKIMK — higher, > 17.4 µM
- TVQPGPGPGK — 460-fold higher, 68.6 µM
- SVYGETLER — within 1.5-fold, 0.16 µM
- VSIRVGGQIK — higher, > 61.7 µM
- ETNPFGICK — 5.4-fold higher, 0.804 µM
- ELTEVFEFAFK — 12-fold higher, 1.73 µM
- DTIPHAACHK — 16-fold lower, 0.0093 µM
- TLYQIQVMKR — 3.7-fold higher, 0.558 µM
- LTFYSKVRK — 23-fold higher, 3.38 µM
- PVRPQVPLR — 23-fold higher, 3.44 µM
- FVVYRDSIPK — within 1.5-fold, 0.146 µM
- TLEQTVKK — higher, > 75.3 µM
- KQENWYSLKK — higher, > 136 µM
- KVRFHNIRGR — 30-fold higher, 4.5 µM
- GTMYILLKK — 56-fold higher, 8.45 µM
- SLYGKTLEEK — 43-fold higher, 6.52 µM
- LTISYGRKK — 400-fold higher, 59.7 µM
- SLGPGPGTK — 1000-fold higher, 152 µM
- KQLCDLLIK — 310-fold higher, 46.4 µM
- VTIRVGGQLK — 570-fold higher, 86.1 µM
- GTRQARRNK — 310-fold higher, 46 µM
- AVKDLFVVYR — 16-fold lower, 0.0091 µM
- GTGISYGRK — higher, > 43.7 µM

Target: HLA-A*6801 (Homo sapiens, UniProt P04439, A269V/D185E/E176V/E277Q/E87N/F33Y/G231S/I121M/I166T/I218V/L180W/L300P/L318F/N151K/P208A/P217A/Q86R/R169H/T345S)
Assay: biochemical
Format: binding

Point of comparison: QMAVGPGPGK, IC50 0.022 µM. Against it:
- NVMGRWTGR — within 1.5-fold, 0.02 µM
- VTIKIEGQLK — within 1.5-fold, 0.027 µM
- KMFLQLAK — 380-fold higher, 8.38 µM
- KFSEFRWYRY — 580-fold higher, 12.8 µM
- NTLEQTVKR — 2.6-fold lower, 0.0086 µM
- SVCRSSRTR — within 1.5-fold, 0.017 µM
- GTTLESITKK — 460-fold higher, 10.1 µM
- ALQAAAAAK — higher, > 80 µM
- VTLDIQSTK — 11-fold higher, 0.237 µM
- DTLEQTLKR — 5-fold higher, 0.11 µM
- QQNQESKIMK — 970-fold higher, 21.3 µM
- TVQPGPGPGK — within 1.5-fold, 0.028 µM
- SVYGETLER — within 1.5-fold, 0.017 µM
- VSIRVGGQIK — 89-fold higher, 1.96 µM
- ETNPFGICK — 1.6-fold lower, 0.014 µM
- ELTEVFEFAFK — within 1.5-fold, 0.015 µM
- DTIPHAACHK — within 1.5-fold, 0.023 µM
- TLYQIQVMKR — 4.1-fold higher, 0.09 µM
- LTFYSKVRK — 1.7-fold lower, 0.013 µM
- PVRPQVPLR — 320-fold higher, 7.01 µM
- FVVYRDSIPK — within 1.5-fold, 0.03 µM
- TLEQTVKK — 970-fold higher, 21.4 µM
- KQENWYSLKK — 220-fold higher, 4.79 µM
- KVRFHNIRGR — 180-fold higher, 3.98 µM
- GTMYILLKK — 7.1-fold lower, 0.0031 µM
- SLYGKTLEEK — within 1.5-fold, 0.029 µM
- LTISYGRKK — 2.9-fold higher, 0.063 µM
- SLGPGPGTK — 160-fold higher, 3.52 µM
- LVTDLRIVYR — 3.2-fold lower, 0.0068 µM
- KQLCDLLIK — 540-fold higher, 11.9 µM
- VTIRVGGQLK — within 1.5-fold, 0.028 µM
- GTRQARRNK — 2700-fold higher, 59.7 µM
- AVKDLFVVYR — 6.7-fold lower, 0.0033 µM
- GTGISYGRK — 340-fold higher, 7.41 µM

Reference: patent US20060079453A1, “Hla binding peptides and their uses” (priority 2002, published 2006)
